US20170334899A1, “AMINO-SUBSTITUTED ISOTHIAZOLES” (Bayer Pharma Aktiengesellschaft, priority 2014, published 2017)

Experiments:
CDK2/CycE = target: T1, CDK2/CycE (Homo sapiens, UniProt P24941); experiment: CDK2/CycE kinase assay (TR-FRET); assay type: biochemical; conditions: avg, read-out: CDK2 avg (IC50 [mol/l])
T1 construct: GST; purchased ProQinase GmbH (Freiburg, Germany); host or cells: insect cells (Sf9)
Summary of the method: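 Read-out is a TR-FRET 665/620 nm emission ratio from EDTA-stopped reactions detected with anti-pRB(pSer807/pSer811), Eu-labelled anti-mouse IgG and streptavidin-XL665, scaled between no-enzyme and uninhibited wells. Reaction: Sf9-expressed GST-CDK2/GST-CycE, 15 min compound preincubation, 10 μM ATP, 0.75 μM biotin-peptide, 25 min, 22° C., pH 8.0 Tris buffer.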

[1] = target: T2, catalytic domain of human Bub1 (amino acids 704-1085) (Homo sapiens, UniProt O43683); experiment: Bub1 kinase assay (TR-FRET); assay type: biochemical; conditions: 10 μM ATP, avg, read-out: Bub1 avg (IC50 [mol/l])
T2 construct: catalytic domain of human Bub1 (amino acids 704-1085); His6 (N); made in house; host or cells: insect cells (Hi5)
T2 sequence (O43683 704-1085): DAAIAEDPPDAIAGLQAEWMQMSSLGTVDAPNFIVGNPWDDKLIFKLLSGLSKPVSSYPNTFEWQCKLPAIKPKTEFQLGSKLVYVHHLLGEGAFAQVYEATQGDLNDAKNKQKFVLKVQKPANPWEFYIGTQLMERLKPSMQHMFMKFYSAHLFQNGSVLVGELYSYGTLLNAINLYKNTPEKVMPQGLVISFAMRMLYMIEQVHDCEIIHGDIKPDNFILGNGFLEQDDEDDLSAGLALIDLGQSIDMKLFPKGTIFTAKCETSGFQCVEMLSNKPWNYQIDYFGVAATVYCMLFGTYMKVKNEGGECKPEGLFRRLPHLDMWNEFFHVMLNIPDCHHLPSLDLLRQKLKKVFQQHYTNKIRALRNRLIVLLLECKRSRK
Summary of the method: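 Readout is the 665/620 nm TR-FRET ratio from anti-phosphoserine antibody, Eu-labelled anti-mouse IgG and streptavidin-XL665, scaled between no-enzyme and uninhibited controls. Reaction: 1 μM biotinylated peptide, 10 μM ATP, 60 min, 22 °C, after 15 min compound preincubation with His6-Bub1 (704-1085, insect-expressed, ~200 ng/ml).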

IC50 (CDK2/CycE) [µM] | IC50 [1] [µM] | Structure (SMILES)
≥ 20 | 14 | Cc1nsc(Nc2cnc(C(F)(F)F)cn2)c1C(=O)Nc1ccc(OCCNCCF)nc1 [Example 321, N-(6-{2-[(2-fluoroethyl)amino]ethoxy}pyridin-3-yl)-3-methyl-5-{[5-(trifluoromethyl)pyrazin-2-yl]amino}-1,2-thiazole-4-carboxamide]
> 20 | > 20 | Cc1nsc(Nc2cnc(C(F)(F)F)cn2)c1C(=O)Nc1ccc(F)c(OCCCN(C)CC(F)(F)F)c1 [Example 302, N-(4-fluoro-3-{3-[methyl(2,2,2-trifluoroethyl)amino]propoxy}phenyl)-3-methyl-5-{[5-(trifluoromethyl)pyrazin-2-yl]amino}-1,2-thiazole-4-carboxamide]
> 20 | > 20 | CCNC(=O)c1cccc(NC(=O)c2c(C)nsc2Nc2ccc(C#N)cn2)c1 [Example 252, 5-[(5-cyanopyridin-2-yl)amino]-N-[3-(ethylcarbamoyl)phenyl]-3-methyl-1,2-thiazole-4-carboxamide]
≥ 20 | ≥ 20 | Cc1nsc(Nc2cnc(C(F)(F)F)cn2)c1C(=O)Nc1ccc(F)c(OCC2CCN(CC(F)F)C2)c1 (stereo not drawn) [Example 316, N-(3-{[1-(2,2-difluoroethyl)pyrrolidin-3-yl]methoxy}-4-fluorophenyl)-3-methyl-5-{[5-(trifluoromethyl)pyrazin-2-yl]amino}-1,2-thiazole-4-carboxamide]
11 | > 20 | Cc1nsc(Nc2cncc(C(F)(F)F)n2)c1C(=O)Nc1ccc(C(=O)NC2CN(CC(F)(F)F)C2)cc1 [Example 280, 3-methyl-N-(4-{[1-(2,2,2-trifluoroethyl)azetidin-3-yl]carbamoyl}phenyl)-5-{[6-(trifluoromethyl)pyrazin-2-yl]amino}-1,2-thiazole-4-carboxamide]
> 20 | > 20 | Cc1nsc(Nc2ccc(C#N)cn2)c1C(=O)Nc1cccc(C(=O)NC2CC2)c1 [Example 250, 5-[(5-cyanopyridin-2-yl)amino]-N-[3-(cyclopropylcarbamoyl)phenyl]-3-methyl-1,2-thiazole-4-carboxamide]
> 20 | > 20 | Cc1nsc(Nc2cncc(C(F)(F)F)n2)c1C(=O)Nc1ccc(F)c(OC2CCN(CCF)CC2)c1 [Example 269, N-(4-fluoro-3-{[1-(2-fluoroethyl)piperidin-4-yl]oxy}phenyl)-3-methyl-5-{[6-(trifluoromethyl)pyrazin-2-yl]amino}-1,2-thiazole-4-carboxamide]
> 20 | 19 | Cc1nsc(Nc2cncc(C(F)(F)F)n2)c1C(=O)Nc1ccc(F)c(OC2CCN(CC(F)F)CC2)c1 [Example 268, N-(3-{[1-(2,2-difluoroethyl)piperidin-4-yl]oxy}-4-fluorophenyl)-3-methyl-5-{[6-(trifluoromethyl)pyrazin-2-yl]amino}-1,2-thiazole-4-carboxamide]
≥ 20 | ≥ 20 | Cc1nsc(Nc2cc(C#N)ccn2)c1C(=O)Nc1ccc(OC2CCNCC2)nc1 [Example 24, 5-[(4-Cyanopyridin-2-yl)amino]-3-methyl-N-[6-(piperidin-4-yloxy)pyridin-3-yl]-1,2-thiazole-4-carboxamide]
